{"source": "patent US5463029A", "about": "“Purification of fusion proteins comprising GM-CSF and IL-3” (Immunex Corporation, priority 1992, dated 1995)", "key": {"GM-CSF receptor": {"target": "T1, GM-CSF receptor (Homo sapiens, UniProt P15509+P32927)", "T1 construct": "endogenous in cells", "T1 sequence (P15509 23-400)": "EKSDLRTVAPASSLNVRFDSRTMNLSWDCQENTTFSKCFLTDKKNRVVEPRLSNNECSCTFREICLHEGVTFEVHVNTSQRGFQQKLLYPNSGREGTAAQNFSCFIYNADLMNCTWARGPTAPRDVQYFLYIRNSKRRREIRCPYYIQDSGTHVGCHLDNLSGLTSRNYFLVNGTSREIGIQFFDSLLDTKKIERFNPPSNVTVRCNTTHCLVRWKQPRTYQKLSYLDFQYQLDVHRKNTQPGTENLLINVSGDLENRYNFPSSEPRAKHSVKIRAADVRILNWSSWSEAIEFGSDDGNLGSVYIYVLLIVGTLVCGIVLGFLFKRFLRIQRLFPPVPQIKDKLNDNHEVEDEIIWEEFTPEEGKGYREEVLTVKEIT", "T1 sequence (P32927 17-897)": "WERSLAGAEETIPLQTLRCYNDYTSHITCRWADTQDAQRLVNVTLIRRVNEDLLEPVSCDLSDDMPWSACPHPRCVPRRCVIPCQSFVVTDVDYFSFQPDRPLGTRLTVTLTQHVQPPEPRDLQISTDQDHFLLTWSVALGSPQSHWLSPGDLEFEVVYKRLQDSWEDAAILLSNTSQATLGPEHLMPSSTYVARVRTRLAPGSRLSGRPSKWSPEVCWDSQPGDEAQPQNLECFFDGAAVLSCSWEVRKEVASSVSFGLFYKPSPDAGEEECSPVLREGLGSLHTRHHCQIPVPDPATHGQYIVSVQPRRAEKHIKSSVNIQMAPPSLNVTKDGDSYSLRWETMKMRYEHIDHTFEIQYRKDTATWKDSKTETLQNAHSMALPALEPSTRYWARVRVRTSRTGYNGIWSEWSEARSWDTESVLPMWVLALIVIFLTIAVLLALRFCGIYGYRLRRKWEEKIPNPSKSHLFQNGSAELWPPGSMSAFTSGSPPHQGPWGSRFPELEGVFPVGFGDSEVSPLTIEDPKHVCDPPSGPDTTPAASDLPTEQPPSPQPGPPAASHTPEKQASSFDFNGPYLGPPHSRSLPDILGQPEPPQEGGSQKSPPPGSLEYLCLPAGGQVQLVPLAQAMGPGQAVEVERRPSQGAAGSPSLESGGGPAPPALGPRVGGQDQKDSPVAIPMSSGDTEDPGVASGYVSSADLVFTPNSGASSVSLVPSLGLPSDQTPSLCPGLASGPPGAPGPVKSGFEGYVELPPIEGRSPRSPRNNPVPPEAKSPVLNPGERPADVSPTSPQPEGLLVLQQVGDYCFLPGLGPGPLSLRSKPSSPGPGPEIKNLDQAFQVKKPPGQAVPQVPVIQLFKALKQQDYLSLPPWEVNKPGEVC", "test": "binding affinity for GM-CSF receptor (as described by Park et al.)", "protocol": "(§1) The binding affinity of the recombinant fusion protein for receptors for both GM-CSF and IL-3 were determined substantially as described by Park et al., J. Biol. Chem. 264:5420; 1989, and Park et al., Blood 74:56; 1989."}, "TF-1 cells": {"tested_on": "TF-1 cells", "test": "cell proliferation assay using TF-1 cells (tritiated thymidine incorporation)", "assay_type": "cell-based, human", "details": "72 hours at 37° C., tritiated thymidine for the final four hours", "protocol": "The potency of the purified recombinant fusion protein was evaluated in a cell proliferation assay using TF-1 cells. TF-1 cells are a continuous cell line derived from human erythroid leukemia cells, and are dependent on IL-3 or GM-CSF for growth. TF-1 cells were maintained in medium containing GM-CSF. Prior to being used in an assay, the cells were washed free of GM-CSF, and resuspended to a concentration of 5×10^4 cells/ml in assay medium (Iscove's Modification of Dulbecco's Medium). The suspended cells were added to the wells of a 96-well microtiter plate containing dilutions of the recombinant fusion protein preparation, positive controls, or negative controls. The cells were incubated at 37° C. for 72 hours; proliferation was measured by adding tritiated thymidine for the final four hours of the incubation. The cells were harvested onto glass fiber filters, and the amount of radioactivity incorporated was determined by scintillation counting."}, "IL-3 receptor": {"target": "T2, IL-3 receptor (Homo sapiens, UniProt P26951+P32927)", "T2 construct": "endogenous in cells", "T2 sequence (P26951 19-378)": "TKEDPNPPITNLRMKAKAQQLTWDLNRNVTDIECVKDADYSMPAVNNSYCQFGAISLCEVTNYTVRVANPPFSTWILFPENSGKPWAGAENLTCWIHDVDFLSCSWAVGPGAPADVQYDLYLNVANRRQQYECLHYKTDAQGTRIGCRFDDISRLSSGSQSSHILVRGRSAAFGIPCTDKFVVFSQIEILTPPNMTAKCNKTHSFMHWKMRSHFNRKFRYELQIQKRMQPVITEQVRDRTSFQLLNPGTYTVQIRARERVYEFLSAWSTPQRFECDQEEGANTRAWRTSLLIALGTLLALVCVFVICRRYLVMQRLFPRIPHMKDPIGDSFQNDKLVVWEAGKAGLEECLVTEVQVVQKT", "T2 sequence (P32927 17-897)": "T1 sequence (P32927 17-897)", "test": "binding affinity for IL-3 receptor (as described by Park et al.)", "protocol": "as §1"}}, "data": [{"substance": "huGM-CSF[Leu^23 Asp^27 Glu^39 ]/Gly4 SerGly5 Ser/hulL-3[Pro^8 Asp^15 Asp^70 ] [recombinant fusion protein]", "values": [{"measurement": "binding affinity for GM-CSF receptor", "setting": "GM-CSF receptor", "result": "1e+10", "unit": "M⁻¹"}, {"measurement": "potency (a unit is the amount of recombinant fusion protein that induces half-maximal proliferation in the TF-1 bioassay)", "setting": "TF-1 cells", "result": "2.1×10^8 U/mg"}, {"measurement": "binding affinity for IL-3 receptor", "setting": "IL-3 receptor", "result": "2.2e+10", "unit": "M⁻¹"}]}]}
